According to US9120752B2, “Pyridine compounds as sodium channel blockers” (Purdue Pharma, L.P., priority 2010, dated 2015):

Target: human Nav1.7 (Homo sapiens (Human), UniProt Q15858)
Assay: FLIPR or FLIPR TETRA sodium dye assay with KCl and test article pre-incubation
Type: cell-based
Conditions: sodium dye assay with KCl; recombinant Nav1.7/HEK293 cells; read-out: Nav1.7 IC50 (μM) ± SEM

human Nav1.7, sequence (Q15858 other isoform, or with tags, fused parts or gaps): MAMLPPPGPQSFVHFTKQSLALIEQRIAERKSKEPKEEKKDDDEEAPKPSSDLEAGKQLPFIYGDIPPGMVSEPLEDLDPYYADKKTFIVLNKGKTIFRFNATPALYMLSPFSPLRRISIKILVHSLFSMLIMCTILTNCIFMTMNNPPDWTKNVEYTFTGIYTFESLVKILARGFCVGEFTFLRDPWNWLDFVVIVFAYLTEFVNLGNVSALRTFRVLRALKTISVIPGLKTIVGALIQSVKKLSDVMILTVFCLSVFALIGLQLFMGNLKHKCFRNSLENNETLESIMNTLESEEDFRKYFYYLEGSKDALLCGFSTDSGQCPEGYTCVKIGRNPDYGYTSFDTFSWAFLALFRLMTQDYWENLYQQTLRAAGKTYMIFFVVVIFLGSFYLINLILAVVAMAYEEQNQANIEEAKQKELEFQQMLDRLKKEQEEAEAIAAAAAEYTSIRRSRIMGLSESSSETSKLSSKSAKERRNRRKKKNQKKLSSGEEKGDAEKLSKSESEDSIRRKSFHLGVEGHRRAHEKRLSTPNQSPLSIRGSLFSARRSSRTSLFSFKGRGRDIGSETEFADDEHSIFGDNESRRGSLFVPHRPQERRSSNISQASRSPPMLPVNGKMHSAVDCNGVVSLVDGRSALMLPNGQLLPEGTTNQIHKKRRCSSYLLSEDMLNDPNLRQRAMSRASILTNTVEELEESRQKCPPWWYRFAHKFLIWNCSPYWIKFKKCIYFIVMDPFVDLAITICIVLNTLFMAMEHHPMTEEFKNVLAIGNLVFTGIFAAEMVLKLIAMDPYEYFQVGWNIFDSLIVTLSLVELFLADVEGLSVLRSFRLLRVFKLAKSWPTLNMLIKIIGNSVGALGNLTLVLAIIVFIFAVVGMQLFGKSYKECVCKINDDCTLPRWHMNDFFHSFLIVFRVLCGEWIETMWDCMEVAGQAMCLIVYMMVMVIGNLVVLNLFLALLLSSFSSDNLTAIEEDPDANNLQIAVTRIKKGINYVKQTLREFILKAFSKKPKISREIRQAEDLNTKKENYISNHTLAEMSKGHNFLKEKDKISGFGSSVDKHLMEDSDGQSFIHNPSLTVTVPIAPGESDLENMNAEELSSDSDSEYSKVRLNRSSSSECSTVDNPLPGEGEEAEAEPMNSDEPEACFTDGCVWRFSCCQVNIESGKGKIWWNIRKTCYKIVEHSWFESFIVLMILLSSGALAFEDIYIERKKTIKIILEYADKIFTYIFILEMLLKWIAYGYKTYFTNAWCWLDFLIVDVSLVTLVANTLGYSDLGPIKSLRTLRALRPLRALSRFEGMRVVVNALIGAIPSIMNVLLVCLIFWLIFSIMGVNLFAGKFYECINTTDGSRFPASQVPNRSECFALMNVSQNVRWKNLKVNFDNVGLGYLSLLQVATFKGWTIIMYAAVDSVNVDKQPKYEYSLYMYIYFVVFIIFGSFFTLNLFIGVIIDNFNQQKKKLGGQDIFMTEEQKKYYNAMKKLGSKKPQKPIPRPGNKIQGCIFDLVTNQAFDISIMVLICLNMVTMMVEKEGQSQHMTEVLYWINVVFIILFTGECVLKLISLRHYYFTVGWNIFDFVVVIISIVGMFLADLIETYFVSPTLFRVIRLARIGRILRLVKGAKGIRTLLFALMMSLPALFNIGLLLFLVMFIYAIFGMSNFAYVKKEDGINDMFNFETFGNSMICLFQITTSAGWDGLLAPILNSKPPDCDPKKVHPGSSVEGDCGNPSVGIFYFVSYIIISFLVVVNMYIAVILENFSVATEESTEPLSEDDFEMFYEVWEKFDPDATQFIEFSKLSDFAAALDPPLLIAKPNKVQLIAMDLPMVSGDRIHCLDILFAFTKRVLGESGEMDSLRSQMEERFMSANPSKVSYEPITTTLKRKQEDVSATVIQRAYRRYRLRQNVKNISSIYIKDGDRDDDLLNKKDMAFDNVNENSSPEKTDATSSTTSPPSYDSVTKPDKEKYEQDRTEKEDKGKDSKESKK

Structure (SMILES)	IC50 [µM]
CN(C)S(=O)(=O)N1CCN(C(=O)c2cccc(-c3ccc(Oc4ccc(F)cc4)cc3)n2)CC1 [Compound 11, 4-(6-(4-(4-fluorophenoxy)phenyl)picolinoyl)-N,N-dimethyl-piperazine-1-sulfonamide]	1.01 ± 0.09
Cc1noc(C)c1S(=O)(=O)N1CCN(C(=O)c2cccc(-c3ccc(Oc4ccc(F)cc4)cc3)n2)CC1 [Compound 14, (4-((3,5-dimethylisoxazol-4-yl)sulfonyl)piperazin-1-yl)(6-(4-(4-fluorophenoxy)phenyl)pyridin-2-yl)methanone]	0.22 ± 0.04
O=C(c1cccc(-c2ccc(Oc3ccc(F)cc3)cc2)n1)N1CCN(S(=O)(=O)c2cccnc2)CC1 [Compound 15, (6-(4-(4-fluorophenoxy)phenyl)pyridin-2-yl)(4-(pyridin-3-ylsulfonyl)piperazin-1-yl)methanone]	0.42 ± 0.04
N#Cc1ccc(S(=O)(=O)N2CCN(C(=O)c3cccc(-c4ccc(Oc5ccc(F)cc5)cc4)n3)CC2)cc1 [Compound 17, 4-((4-(6-(4-(4-fluorophenoxy)phenyl)picolinoyl)piperazin-1-yl)sulfonyl)benzonitrile]	0.97 ± 0.13
O=C(O)c1cccc(S(=O)(=O)N2CCN(C(=O)c3cccc(-c4ccc(Oc5ccc(F)cc5)cc4)n3)CC2)c1 [Compound 18, 3-((4-(6-(4-(4-fluorophenoxy)phenyl)picolinoyl)piperazin-1-yl)sulfonyl)benzoic acid]	3.48 ± 0.72
O=C(O)c1ccc(S(=O)(=O)N2CCN(C(=O)c3cccc(-c4ccc(Oc5ccc(F)cc5)cc4)n3)CC2)cc1 [Compound 19, 4-((4-(6-(4-(4-fluorophenoxy)phenyl)picolinoyl)piperazin-1-yl)sulfonyl)benzoic acid]	4.81 ± 0.18
CS(=O)(=O)NCCNC(=O)c1cccc(-c2ccc(Oc3ccc(F)cc3)cc2)n1 [Compound 21, 6-(4-(4-fluorophenoxy)phenyl)-N-(2-(methylsulfonamido)ethyl)picolinamide]	0.39 ± 0.08
NC(=O)[C@@H](Cc1c[nH]c2ccccc12)NC(=O)c1cccc(-c2ccc(Oc3ccc(F)cc3)cc2)n1 [Compound 37, 6-[4-(4-fluoro-phenoxy)-phenyl]-pyridine-2-carboxylic acid [(R)-1-carbamoyl-2-(1H-indol-3-yl)-ethyl]-amide]	4.02 ± 2.78
NC(=O)C[C@H](NC(=O)c1cccc(-c2ccc(Oc3ccc(F)cc3)cc2)n1)C(N)=O [Compound 39, (S)-2-({6-[4-(4-fluoro-phenoxy)-phenyl]-pyridine-2-carbonyl}-amino)-succinamide]	0.75 ± 0.05
NC(=O)[C@H](Cc1ccccc1)NC(=O)c1cccc(-c2ccc(Oc3ccc(F)cc3)cc2)n1 [Compound 41, 6-[4-(4-fluoro-phenoxy)-phenyl]-pyridine-2-carboxylic acid ((S)-1-carbamoyl-2-phenyl-ethyl)-amide]	> 20
NC(=O)[C@@H]1CCCN1C(=O)c1cccc(-c2ccc(Oc3ccc(F)cc3)cc2)n1 [Compound 42, (S)-1-{6-[4-(4-fluoro-phenoxy)-phenyl]-pyridine-2-carbonyl}-pyrrolidine-2-carboxylic acid amide]	2.12 ± 0.35
CC(C)[C@H](NC(=O)c1cccc(-c2ccc(Oc3ccc(F)cc3)cc2)n1)C(N)=O [Compound 46, 6-[4-(4-fluoro-phenoxy)-phenyl]-pyridine-2-carboxylic acid ((S)-1-carbamoyl-2-methyl-propyl)-amide]	0.61 ± 0.05
NC(=O)[C@H](Cc1ccc(O)cc1)NC(=O)c1cccc(-c2ccc(Oc3ccc(F)cc3)cc2)n1 [Compound 48, 6-[4-(4-fluoro-phenoxy)-phenyl]-pyridine-2-carboxylic acid [(S)-1-carbamoyl-2-(4-hydroxy-phenyl)-ethyl]-amide]	0.55 ± 0.08
NC(=O)[C@H](Cc1c[nH]cn1)NC(=O)c1cccc(-c2ccc(Oc3ccc(F)cc3)cc2)n1 [Compound 49, 6-[4-(4-fluoro-phenoxy)-phenyl]-pyridine-2-carboxylic acid [(S)-1-carbamoyl-2-(1H-imidazol-4-yl)-ethyl]-amide]	0.33 ± 0.02
N#Cc1cccc(S(=O)(=O)N2CCN(C(=O)c3cccc(Oc4ccc(F)cc4)n3)CC2)c1 [Compound 55, 3-((4-(6-(4-fluorophenoxy)picolinoyl)piperazin-1-yl)sulfonyl)benzonitrile]	5.94 ± 0.73

Now from value to molecule:

IC50 [µM]	Structure (SMILES)
0.19 ± 0.05	O=C(c1cccc(-c2ccc(Oc3ccc(F)cc3)cc2)n1)N1CCN(S(=O)(=O)c2ccc(OC(F)(F)F)cc2)CC1 [Compound 7, (6-(4-(4-fluorophenoxy)phenyl)pyridin-2-yl)(4-((4-(trifluoromethoxy)phenyl)sulfonyl)piperazin-1-yl)methanone]
0.78 ± 0.17	CS(=O)(=O)c1cccc(S(=O)(=O)N2CCN(C(=O)c3cccc(-c4ccc(Oc5ccc(F)cc5)cc4)n3)CC2)c1 [Compound 8, (6-(4-(4-fluorophenoxy)phenyl)pyridin-2-yl)(4-((3-(methylsulfonyl)phenyl)sulfonyl)piperazin-1-yl)methanone]
0.43 ± 0.11	N#Cc1cccc(S(=O)(=O)N2CCN(C(=O)c3cccc(-c4ccc(Oc5ccc(F)cc5)cc4)n3)CC2)c1 [Compound 10, 3-((4-(6(4-(4-fluorophenoxy)phenyl)picolinoyl)piprazin-1-yl)sulfonyl)benzonitrile]
0.14 ± 0.04	CC1(C)C2CCC1(CS(=O)(=O)N1CCN(C(=O)c3cccc(-c4ccc(Oc5ccc(F)cc5)cc4)n3)CC1)C(=O)C2 (stereo not drawn) [Compound 12, 1-(((4-(6-(4-(4-fluorophenoxy)phenyl)picolinoyl)piperazin-1-yl)sulfonyl)methyl)-7,7-dimethylbicyclo[2.2.1]heptan-2-one]
1.31 ± 0.18	CS(=O)(=O)N1CCN(C(=O)c2cccc(-c3ccc(Oc4ccc(F)cc4)cc3)n2)CC1 [Compound 13, (6-(4-(4-fluorophenoxy)phenyl)pyridin-2-yl)(4-(methylsulfonyl)piperazin-1-yl)methanone]
0.32 ± 0.09	O=C(c1cccc(-c2ccc(Oc3ccc(F)cc3)cc2)n1)N1CCN(S(=O)(=O)c2cccc(OC(F)(F)F)c2)CC1 [Compound 16]
0.39 ± 0.03	CS(=O)(=O)c1cccc(S(=O)(=O)NCCNC(=O)c2cccc(-c3ccc(Oc4ccc(F)cc4)cc3)n2)c1 [Compound 23, 6-(4-(4-fluorophenoxy)phenyl)-N-(2-(3-(methylsulfonyl)phenylsulfonamido)ethyl)picolinamide]
0.03 ± 0.04	N#Cc1cccc(S(=O)(=O)NCCNC(=O)c2cccc(-c3ccc(Oc4ccc(F)cc4)cc3)n2)c1 [Compound 24, N-(2-(3-cyanophenylsulfonamido)ethyl)-6-(4-(4-fluorophenoxy)phenyl)picolinamide]
1.32 ± 0.16	NC(=O)[C@@H](CO)NC(=O)c1cccc(-c2ccc(Oc3ccc(F)cc3)cc2)n1 [Compound 40, 6-[4-(4-fluoro-phenoxy)-phenyl]-pyridine-2-carboxylic acid ((R)-1-carbamoyl-2-hydroxyl-ethyl)-amide]
1.56 ± 0.5	CC(O)[C@H](NC(=O)c1cccc(-c2ccc(Oc3ccc(F)cc3)cc2)n1)C(N)=O (stereo partly drawn) [Compound 43, 6-[4-(4-fluoro-phenoxy)-phenyl]-pyridine-2-carboxylic acid ((S)-1-carbamoyl-2-hydroxy-propyl)-amide]
0.34 ± 0.07	CC(C)C[C@H](NC(=O)c1cccc(-c2ccc(Oc3ccc(F)cc3)cc2)n1)C(N)=O [Compound 44, 6-[4-(4-fluoro-phenoxy)-phenyl]-pyridine-2-carboxylic acid ((S)-1-carbamoyl-3-methyl-butyl)-amide]
0.21 ± 0.04	NC(=O)[C@H](Cc1cccnc1)NC(=O)c1cccc(-c2ccc(Oc3ccc(F)cc3)cc2)n1 [Compound 45, (S)—N-(1-amino-1-oxo-3-(pyridin-3-yl)propan-2-yl)-6-(4-(4-fluorophenoxy)phenyl)picolinamide]
2.89 ± 0.33	NCCCC[C@H](NC(=O)c1cccc(-c2ccc(Oc3ccc(F)cc3)cc2)n1)C(N)=O [Compound 51, (S)—N-(1,6-diamino-1-oxohexan-2-yl)-6-(4-(4-fluorophenoxy)phenyl)picolinamide]
6.81 ± 0.57	N#Cc1cccc(S(=O)(=O)N2CCN(C(=O)c3cccc(-c4ccc(F)cc4)n3)CC2)c1 [Compound 56, 3-((4-(6-(4-fluorophenyl)picolinoyl)piperazin-1-yl)sulfonyl)benzonitrile]
2.31 ± 0.62	N#Cc1cccc(S(=O)(=O)N2CCN(C(=O)c3cc([C@H](O)CO)cc(-c4ccc(Oc5ccc(F)cc5)cc4)n3)CC2)c1 [Compound 58, (S)-3-((4-(4-(1,2-dihydroxyethyl)-6-(4-(4-fluorophenoxy)phenyl)picolinoyl)piperazin-1-yl)sulfonyl)benzonitrile]
0.34 ± 0.13	N#Cc1cc(S(=O)(=O)N2CCN(C(=O)c3cccc(-c4ccc(Oc5ccc(F)cc5)cc4)n3)CC2)ccc1F [Compound 59]
0.78 ± 0.1	CN1CCOc2cc(S(=O)(=O)N3CCN(C(=O)c4cccc(-c5ccc(Oc6ccc(F)cc6)cc5)n4)CC3)ccc21 [Compound 60, (6-(4-(4-fluorophenoxy)phenyl)pyridin-2-yl)(4-((4-methyl-3,4-dihydro-2H-benzo[b][1,4]oxazin-7-yl)sulfonyl)piperazin-1-yl)methanone]
4.34 ± 0.73	C[C@H](NC(=O)c1cccc(-c2ccc(Oc3ccc(C(F)(F)F)cn3)cc2)n1)C(N)=O [Compound 61, (S)—N-(1-amino-1-oxopropan-2-yl)-6-(4-((5-(trifluoromethyl)pyridin-2-yl)oxy)phenyl)picolinamide]
0.814 ± 0.231	CC(C)C[C@H](NC(=O)c1cc([C@H](O)CO)cc(-c2ccc(Oc3ccc(F)cc3)cc2)n1)C(N)=O [Compound 63, N—((S)-1-amino-4-methyl-1-oxopentan-2-yl)-4-((S)-1,2-dihydroxyethyl)-6-(4-(4-fluorophenoxy)phenyl)picolinamide]
> 20	NC(=O)C[C@H](NC(=O)c1cc([C@H](O)CO)cc(-c2ccc(Oc3ccc(F)cc3)cc2)n1)C(N)=O [Compound 64, (S)-2-(4-((S)-1,2-dihydroxyethyl)-6-(4-(4-fluorophenoxy)phenyl)picolinamido)succinamide]
1.56 ± 0.166	CC(C)C[C@H](NC(=O)c1cc([C@@H](O)CO)cc(-c2ccc(Oc3ccc(F)cc3)cc2)n1)C(N)=O [Compound 65, N—((S)-1-amino-4-methyl-1-oxopentan-2-yl)-4-((R)-1,2-dihydroxyethyl)-6-(4-(4-fluorophenoxy)phenyl)picolinamide]
